Legend:
rat brain membranes = test: Radio receptor assay (R.R.A.), an opiate binding assay: displacement of tritiated naloxone from rat brain membranes; conditions: based on concentration required to displace 50% of (3H)naloxone (1nM) from rat brain membranes; pH 7.4, 15 minutes, bacitracin; Met Enkephalin = 100%
mouse vas deferens = conditions: inhibition of electrically induced contractions, Met Enkephalin = 100%
Description: (ii) M.V.D. stands for mouse vas deferens
were performed as described in the literature

Q: Which results are given for `CSCC[C@H](NC(=O)[C@H](Cc1ccccc1)NC(=O)CNC(=O)CCCC(N)Cc1ccc(O)cc1)C(N)=O` (stereo partly drawn) [Analogue H211, 5-Amino-6-(4'-hydroxyphenyl)-hexanoyl-glycyl-L-phenylalanyl-L-methionine amide]?
A: Activity Relative to Met Enkephalin R.R.A. (rat brain membranes): 9%; Activity Relative to Met Enkephalin M.V.D. (mouse vas deferens): 0.9%
